Like-named read-outs stand apart in the source and are kept apart here.
What was measured:
[1] = target: T1, glutathione-S-transferase (GST) tagged LXRbeta LBD (ligand binding domain) (Homo sapiens, UniProt P55055); assay: LanthaScreen TR-FRET Liver X Receptor Coactivator Assay, co-activator recruitment to LXRbeta LBD; type: biochemical
T1 construct: purchased Invitrogen pv4658.pps
T1 sequence (P55055 222-460 limits assumed): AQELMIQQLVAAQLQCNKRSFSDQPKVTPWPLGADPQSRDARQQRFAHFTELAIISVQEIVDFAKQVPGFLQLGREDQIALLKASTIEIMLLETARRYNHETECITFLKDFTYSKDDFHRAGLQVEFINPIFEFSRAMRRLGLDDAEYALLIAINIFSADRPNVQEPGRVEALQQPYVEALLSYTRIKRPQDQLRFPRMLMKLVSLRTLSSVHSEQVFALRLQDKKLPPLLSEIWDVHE
In short: (§1)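 LXRα- or LXRβ-LBD protein was added to test compounds, then fluorescein-labelled coactivator peptide plus Tb-anti-GST antibody; after room-temperature incubation, TR-FRET was read. Inflection point (IP) and Emax were expressed relative to the dual agonist reference T0901317.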

[2] = target: T2, glutathione-S-transferase (GST) tagged LXRalpha LBD (ligand binding domain) (Homo sapiens, UniProt Q13133); assay: LanthaScreen TR-FRET Liver X Receptor Coactivator Assay, co-activator recruitment to LXRalpha LBD; type: biochemical
T2 construct: purchased Invitrogen pv4655
T2 sequence (Q13133 209-447 limits assumed): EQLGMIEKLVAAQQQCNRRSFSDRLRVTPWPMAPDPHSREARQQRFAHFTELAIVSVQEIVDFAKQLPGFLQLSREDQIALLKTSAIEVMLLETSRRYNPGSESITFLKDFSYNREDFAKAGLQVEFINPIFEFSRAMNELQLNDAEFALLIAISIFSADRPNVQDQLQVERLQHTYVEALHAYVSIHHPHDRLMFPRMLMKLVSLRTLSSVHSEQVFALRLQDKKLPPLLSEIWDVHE
In short: as §1

[3] = efficacy at max dose, in relation to reference dual agonist T0901317, read-out: LXR beta Activity @ max dose (%)
[4] = potency (Inflection Point, IP), co-activator recruitment to LXRbeta LBD, in relation to T0901317, read-out: LXR beta IP
[5] = efficacy at max dose, in relation to reference dual agonist T0901317, read-out: LXR alpha Activity @ max dose (%)
[6] = potency (Inflection Point, IP), co-activator recruitment to LXRalpha LBD, in relation to T0901317, read-out: LXR alpha IP
[7] = LXR beta IP (nM), potency (Inflection Point, IP), co-activator recruitment to LXRbeta LBD, in relation to T0901317
[8] = read-out: LXR beta Activity @ max dose (%)
[9] = potency (Inflection Point, IP), co-activator recruitment to LXRalpha LBD, in relation to T0901317

Row | Structure (SMILES) | Emax [1, 3] | EC50 [1, 4] | Emax [2, 5] | EC50 [2, 6] | LXR alpha IP (nM) [2, 9] | also measured
1 | CN(C)C(=O)c1ccc(N2CCC(CC3CCN(C(=O)[C@](O)(c4cccc(C5CC5)c4)C(F)(F)F)CC3)CC2)cc1Cl [Example 2-96, 2-chloro-4-[4-({1-[(2R)-2-(3-cyclopropyl-phenyl)-3,3,3-trifluoro-2-hydroxy-propanoyl]piperidin-4-yl}methyl)piperidin-1-yl]-N,N-dimethyl-benzamide] | 63% | 4 nM | 20% | 66 nM |  | 
2 | CN(C)C(=O)c1ccc(N2CCC(CC3CCN(C(=O)C(O)(c4ccccc4)C4CC4)CC3)CC2)nc1Cl (stereo not shown) [Example 7-99, 2-chloro-6-[4-({1-[cyclopropyl(hydroxy)phenylacetyl]piperidin-4-yl}methyl)piperidin-1-yl]-N,N-dimethylpyridine-3-carboxamide] |  |  |  |  |  | EC50 [1, 7]: 48 nM; Emax [1, 8]: 74%; EC50 ([2]; LXR alpha IP (nM), potency (Inflection Point, IP), co-activator recruitment to LXRalpha LBD, in relation to T0901317): 2790 nM; Emax ([2]; read-out: LXR alpha Activity @ max dose (%)): 20%
3 | CC(C)c1cccc([C@@](O)(C(=O)N2CCC(CC3CCN(c4ccc(C(=O)N(C)C)cc4)CC3)CC2)C(F)(F)F)c1 [Example 2-125, N,N-dimethyl-4-{4-[(1-{(2R)-3,3,3-trifluoro-2-hydroxy-2-[3-(1-methyl-ethyl)phenyl]propanoyl}piperidin-4-yl)methyl]piperidin-1-yl}benzamide] | 64% | 52 nM | 15% | 459 nM |  | 
4 | COc1cccc(S(=O)(=O)N2CC(CC3CCN(c4ccc(C(=O)N(C)C)c(Cl)c4)CC3)C2)c1 [Example 13-2, 2-chloro-4-[4-({1-[(3-methoxyphenyl)-sulfonyl]azetidin-3-yl}methyl)piperidin-1-yl]-N,N-dimethyl-benzamide] |  |  |  |  |  | EC50 ([1]; co-activator recruitment to GST-LXRbeta LBD, TR-FRET, read-out: LXR beta IP (Inflection Point, potency)): 96 nM; Emax ([1]; efficacy in relation to reference dual agonist T0901317, read-out: LXR beta Activity @ max dose): 70%; EC50 ([2]; co-activator recruitment to GST-LXRalpha LBD, TR-FRET, read-out: LXR alpha IP (Inflection Point, potency)): 3390 nM; Emax ([2]; efficacy in relation to reference dual agonist T0901317, read-out: LXR alpha Activity @ max dose): 26%
5 | COc1cccc(C(=O)C(=O)N2CCC(CC3CCN(c4ccc(C(=O)N(C)C)c(Cl)c4)CC3)CC2)c1 [Example 2-104, 2-chloro-4-[4-({1-[(3-methoxyphenyl) (oxo)acetyl]piperidin-4-yl}methyl)piperidin-1-yl]-N,N-dimethyl-benzamide] | 31% | 409 nM | 3% |  | NO IP | 
6 | CN(C)CCNC(=O)c1ccc(N2CCC(CC3CCN(C(=O)[C@](O)(c4ccccc4)C(F)(F)F)CC3)CC2)cc1Cl [Example 4-16, 2-chloro-N-[2-(dimethylamino)ethyl]-4-[4-({1-[(2R)-3,3,3-trifluoro-2-hydroxy-2-phenylpropanoyl]piperidin-4-yl}methyl)piperidin-1-yl]benzamide] | 64% | 183 nM | 28% | 688 nM |  | 
7 | COc1cccc([C@@](O)(C(=O)N2CCC(SC3CCN(c4ccc(C(=O)N(C)C)c(Cl)c4)CC3)CC2)C(F)(F)F)c1 [Example 10-1, (R)-2-chloro-N,N-dimethyl-4-(4-(1-(3,3,3-trifluoro-2-hydroxy-2-(3-methoxyphenyl)propanoyl)piperidin-4-ylthio)piperidin-1-yl)benzamide] |  |  | 8% |  | NO IP | EC50 [1, 7]: 22 nM; Emax [1, 8]: 56%
8 | CN(C)C(=O)c1ccc(N2CCC(CC3CCN(C(=O)[C@](O)(c4cccc(OC(F)F)c4)C(F)(F)F)CC3)CC2)cc1 [Example 2-134, 4-{4-[(1-{(2R)-2-[3-(difluoro-methoxy)phenyl]-3,3,3-trifluoro-2-hydroxy-propanoyl}piperidin-4-yl)methyl]piperidin-1-yl}-N,N-dimethyl-benzamide] | 67% | 120 nM | 18% | 1980 nM |  | 
9 | CN(C)C(=O)c1ccc(N2CCC(CC3CN(C(=O)C(O)(c4cccc(Cl)c4)C(F)(F)F)C3)CC2)cc1Cl (stereo not shown) [Example 2-65, 2-chloro-4-[4-({1-[2-(3-chlorophenyl)-3,3,3-trifluoro-2-hydroxy-propanoyl]azetidin-3-yl}methyl)piperidin-1-yl]-N,N-dimethyl-benzamide] | 89% | 17 nM | 35% | 694 nM |  | 

Further lines, with some results ahead:

Row | Emax [1, 3] | EC50 [1, 4] | Emax [2, 5] | EC50 [2, 6] | LXR alpha IP (nM) [2, 9] | Structure (SMILES) | also measured
10 | 122% | 55 nM | 45% | 2060 nM |  | CN(C)C(=O)c1ccc(N2CCC(CC3CCN(C(=O)[C@@](O)(c4ccccc4F)C(F)(F)F)CC3)CC2)nc1Cl [Example 7-71, 2-chloro-N,N-dimethyl-6-[4-({1-[(2S)-3,3,3-trifluoro-2-(2-fluorophenyl)-2-hydroxypropanoyl]piperidin-4-yl}methyl)piperidin-1-yl]pyridine-3-carboxamide] | 
11 | 60% | 10 nM | 12% |  | NO IP | CNC(=O)c1ccc(N2CCC(CC3CCN(C(=O)[C@](O)(c4cccc(OC)c4)C(F)(F)F)CC3)CC2)cc1Cl [Example 7-33, 2-chloro-N-methyl-4-[4-({1-[(2R)-3,3,3-trifluoro-2-hydroxy-2-(3-methoxyphenyl)propanoyl]piperidin-4-yl}methyl)piperidin-1-yl]benzamide] | 
12 | 54% | 73 nM | 7% |  | NO IP | O=C(NCCn1cncn1)c1ccc(N2CCC(CC3CCN(C(=O)[C@](O)(c4cc(Cl)cc(Cl)c4)C(F)(F)F)CC3)CC2)cc1Cl [Example 7-130, 2-chloro-4-[4-({1-[(2R)-2-(3,5-dichlorophenyl)-3,3,3-trifluoro-2-hydroxypropanoyl]piperidin-4-yl}methyl)piperidin-1-yl]-N-[2-(1H-1,2,4-triazol-1-yl)ethyl]benzamide] | 
13 | 79% | 6 nM | 29% |  | NO IP | COc1nc(N2CCC(CC3CCN(C(=O)[C@](O)(c4cc(Cl)cc(Cl)c4)C(F)(F)F)CC3)CC2)ccc1C(=O)N(C)C [Example 7-20, 6-[4-({1-[(2R)-2-(3,5-dichlorophenyl)-3,3,3-trifluoro-2-hydroxypropanoyl]piperidin-4-yl}methyl)piperidin-1-yl]-2-methoxy-N,N-dimethylpyridine-3-carboxamide] | 
14 | 35% | 5 nM | 4% |  | NO IP | COc1cccc([C@@](O)(C(=O)N2CCC(C)(CC3CCN(c4ccc(C(=O)N(C)C)c(Cl)n4)CC3)CC2)C(F)(F)F)c1 [Example 7-51, 2-chloro-N,N-dimethyl-6-[4-({4-methyl-1[(2R)-3,3,3-trifluoro-2-hydroxy-2-(3-methoxyphenyl)propanoyl]piperidin-4-yl}methyl)piperidin-1-yl]pyridine-3-carboxamide] | 
15 | 29% | 236 nM | 7% |  | NO IP | CN(C)C(=O)c1ccc(N2CCC(CC3CCN(C(=O)C(F)(F)c4ccc(F)cc4)CC3)CC2)nc1Cl [Example 7-85, 2-chloro-6-[4-({1-[difluoro(4-fluorophenyl)acetyl]piperidin-4-yl}methyl)piperidin-1-yl]-N,N-dimethylpyridine-3-carboxamide] | 
16 | 112% | 52 nM | 40% | 1580 nM |  | CNC(=O)c1ccc(N2CCC(OC3CCN(C(=O)C(O)(c4cccc(Cl)c4)C(F)(F)F)CC3)CC2)cc1Cl (stereo not shown) [Example 7-31, 2-chloro-4-[4-({1-[2-(3-chlorophenyl)-3,3,3-trifluoro-2-hydroxypropanoyl]piperidin-4-yl}oxy)piperidin-1-yl]-N-methylbenzamide] | 
